For the assay, the system named is VEGF-induced HUVEC growth. In words: VEGF-induced HUVEC growth reaction evaluation system (cell growth inhibitory action test). The assay is classed as cell-based. The settings on record: Homo sapiens, 72 h, 20 μg/ml test compound solution added 5 μl per well (100 μl), VEGF solution 400 ng/ml 5 μl per well, three days, absorbance at 450 nm, read-out: Cell growth inhibition rate (%). The protocol:
Cell growth inhibitory action tests were carried out using a VEGF-induced HUVEC growth reaction evaluation system (HUVEC stands for human umbilical vein endothelial cells), which is one of widely-used methods of evaluating in vitro angiogenesis inhibitory effects of drugs.
As one of widely-used methods of evaluating angiogenesis inhibitory effects of drugs, a cell growth inhibitory action test using a VEGF-induced HUVEC growth reaction evaluation system was reported in Cancer Res., 59, 99-106(1999). According to the method described in the above-mentioned literature, cell growth inhibitory action tests of the present compounds were carried out, their cell growth inhibition rates were calculated, and angiogenesis inhibitory effects of the present compounds were evaluated using the obtained rates as indexes.
Each test compound was dissolved in dimethyl sulfoxide (hereinafter abbreviated as “DMSO”), and the obtained solution was diluted with commercially available phosphoric acid buffer solution (hereinafter abbreviated as “PBS”) to prepare a 20 μg/ml test compound solution.
HUVEC was suspended in a 0.5% fetal bovine serum (hereinafter abbreviated as “FBS”)-containing F12K medium to prepare a 2×10^4 cells/ml HUVEC suspension.
VEGF was dissolved in 0.1% bovine serum albumin-containing PBS, and the obtained solution was diluted with the 0.5% FBS-containing F12K medium to prepare a 400 ng/ml VEGF solution.
• 1) The HUVEC suspension was inoculated in each amount of 100 μl into each well of a 96-well plate coated with I type collagen (2×10^3 cells per well). • 2) One day after inoculation, the test compound solution was added in an amount of 5 μl per well. • 3) One hour after adding the test compound solution, the VEGF solution was added in an amount of 5 μl per well. • 4) Three days after adding the VEGF solution, cell counting kit-8(Dojin Chemical Co., Ltd.) was added in an amount of 10 μl per well. • 5) After three hours, the above-mentioned plate was attached to an absorptiometer (multi label counter ARVO), and absorbance at 450 nm of each well suspension (hereinafter referred to as “test compound suspension”) was measured. • 6) A test was carried out in the same manner as in 1) to 5) except that 1.0% DMSO was used instead of the test compound solution.
Incubation was carried out under conditions of 37° C., 5% carbon dioxide and 95% air in an incubator throughout the above-mentioned test steps.
Cell growth inhibition rates, which are indexes of angiogenesis inhibitory effects, were calculated by the following calculation equation.
The inhibition is how much of the control response was suppressed. For `COc1cc(OC)c(NC(=O)c2cccnc2SCc2ccncc2)cc1Cl` [1-85, N-(5-Chloro-2,4-dimethoxyphenyl)-2-(4-pyridylmethylthio)pyridine-3-carboxamide], the inhibition at 20 µg/mL (stock) is 95%.

As to `Cc1cc(NC(=O)c2ccsc2SCc2ccncc2)ccc1Br` [1-289, N-(4-Bromo-3-methylphenyl)-2-(4-pyridylmethylthio)thiophene-3-carboxamide], the inhibition at 20 µg/mL (stock) came out at 100%. In the case of `CN(C)c1ccc(NC(=O)c2cccnc2SCc2ccncc2)cc1` [1-64, N-(4-Dimethylaminophenyl)-2-(4-pyridylmethylthio)pyridine-3-carboxamide] it was 100%.

With `CN(C)c1ccc(NC(=O)c2ccccc2SCc2ccncc2)cc1` [1-91, N-(4-Dimethylaminophenyl)-2-(4-pyridylmethylthio)benzamide], the inhibition at 20 µg/mL (stock) was 100%. Then `Cc1cc(NC(=O)c2cccnc2SCc2ccncc2)ccc1OC(F)(F)F` [1-175, N-(3-Methyl-4-trifluoromethoxyphenyl)-2-(4-pyridylmethylthio)pyridine-3-carboxamide], with 100%. In the case of `Cc1ccc(NC(=O)c2sccc2SCc2ccncc2)cc1F` [1-248, N-(3-Fluoro-4-methylphenyl)-3-(4-pyridylmethylthio)thiophene-2-carboxamide] it was 75%.

On to `O=C(Nc1ccc(Cl)cc1)c1cccnc1SCc1cc[n+]([O-])cc1` [4-1, N-(4-Chlorophenyl)-2-(1-oxopyridin-4-ylmethylthio)pyridine-3-carb oxamide], for which the inhibition at 20 µg/mL (stock) came to 93%.

For `Cc1cc(C)cc(NC(=O)c2cccnc2SCc2ccnc(C(=O)O)c2)c1` [6-1, 2-(2-Carboxypyridin-4-ylmethylthio)-N-(3,5-dimethylphenyl)pyridine-3-carboxamide], the inhibition at 20 µg/mL (stock) was 72%. `O=C(Nc1ccc(F)cc1F)c1cccnc1SCc1ccncc1` [1-70, N-(2,4-Difluorophenyl)-2-(4-pyridylmethylthio)pyridine-3-carboxamide]: the inhibition at 20 µg/mL (stock) was found to be 58%.

With `CNC(=O)c1cc(CSc2ncccc2C(=O)Nc2cc(C)cc(C)c2)ccn1` [7-3, N-(3,5-Dimethylphenyl)-2-(2-methylaminocarbonylpyridin-4-ylmethylthio)pyridine-3-carboxamide], the inhibition at 20 µg/mL (stock) came to 100%.

Take `O=C(Nc1ccc(OC(F)(F)F)cc1)c1cccnc1SCc1ccnc(Cl)c1` [1-227, 2-(2-Chloropyridin-4-ylmethylthio)-N-(4-trifluoromethoxyphenyl)pyridine-3-carboxamide]: the inhibition at 20 µg/mL (stock) turned out to be 60%.

Regarding `Cc1cc(C)cc(NC(=O)c2cccnc2SCc2ccnc(C#N)c2)c1` [1-236, 2-(2-Cyanopyridin-4-ylmethylthio)-N-(3,5-dimethylphenyl)pyridine-3-carboxamide], the inhibition at 20 µg/mL (stock) was 100%. For the molecule `CCOC(=O)Cc1ccc(NC(=O)c2cccnc2SCc2ccncc2)cc1` [1-61, N-(4-Ethoxycarbonylmethylphenyl)-2-(4-pyridylmethylthio)pyridine-3-carboxamide], the inhibition at 20 µg/mL (stock) came to 65%. For the molecule `O=C(Nc1cccc(C(F)(F)F)c1)c1sccc1SCc1ccncc1` [1-276, 3-(4-Pyridylmethylthio)-N-(3-trifluoromethylphenyl)thiophene-2-carboxamide], the inhibition at 20 µg/mL (stock) stood at 100%.

Take `COc1ccc(NC(=O)c2cccnc2SCc2ccncc2)cc1OC` [1-72, N-(3,4-Dimethoxyphenyl)-2-(4-pyridylmethylthio)pyridine-3-carboxamide]: the inhibition at 20 µg/mL (stock) came to 100%. In the case of `Cc1cccc(NC(=O)c2sccc2SCc2ccncc2)c1` [1-263, N-(3-Methylphenyl)-3-(4-pyridylmethylthio)thiophene-2-carboxamide] it was 100%; in that of `O=C(Nc1cc(Cl)cc(Cl)c1)c1cccnc1SCc1ccncc1` [1-84, N-(3,5-Dichlorophenyl)-2-(4-pyridylmethylthio)pyridine-3-carboxamide], 100%; in that of `Cc1ccc(NC(=O)c2cccnc2SCc2ccncc2)cc1Cl` [1-78, N-(3-Chloro-4-methylphenyl)-2-(4-pyridylmethylthio)pyridine-3-carboxamide], 100%. Then `CSc1cc(CSc2ncccc2C(=O)Nc2ccc(Cl)cc2)ccn1` [1-232, N-(4-Chlorophenyl)-2-(2-methylthiopyridin-4-ylmethylthio)pyridine-3-carboxamide], with 75%; and `CC(C)c1cccc(NC(=O)c2cccnc2SCc2ccncc2)c1` [1-35, N-(3-Isopropylphenyl)-2-(4-pyridylmethylthio)pyridine-3-carboxamide], with 100%; and `O=C(Nc1cnc2ccccc2c1)c1cccnc1SCc1ccncc1` [1-20, 2-(4-Pyridylmethylthio)-N-(3-quinolyl)pyridine-3-carboxamide], with 100%. In the case of `O=C(Nc1cnc2ccccc2c1)c1ccccc1SCc1ccncc1` [1-95, 2-(4-Pyridylmethylthio)-N-(3-quinolyl)benzamide] it was 100%. As to `CCCNC(=O)c1cc(CSc2ncccc2C(=O)Nc2cc(C)cc(C)c2)ccn1` [7-1, N-(3,5-Dimethylphenyl)-2(2-n-propylaminocarbonylpyridin-4-yl-methylthio)pyridine 3 carboxamide], the inhibition at 20 µg/mL (stock) was determined as 100%. Then `O=C(Nc1ccc(F)c(Cl)c1)c1cccnc1SCc1ccncc1` [1-75, N-(3-Chloro-4-fluorophenyl)-2-(4-pyridylmethylthio)pyridine-3-carboxamide], with 100%; and `Cc1cc(C)cc(NC(=O)c2cccnc2SCc2ccnc(C)c2)c1` [1-307, N-(3,5-Dimethylphenyl)-2-(2-methylpyridin-4-ylmethylthio)pyridine-3-carboxamide], with 100%; and `Cc1ccc(NC(=O)c2cccnc2SCc2cc[n+]([O-])cc2)cc1C` [4-5, N-(3,4-Dimethylphenyl)-2-(1-oxopyridin-4-ylmethylthio)pyridine-3-carboxamide], with 100%. Then `Cc1cc(C)cc(NC(=O)c2cccnc2SCc2ccnc(C(=O)Nc3ccc(Cl)cc3)c2)c1` [7-2, 2-[2-(4-Chlorophenylaminocarbonyl)pyridin-4-ylmethylthio]-N-(3,5-dimethylphenyl)pyridine-3-carboxamide], with 100%; and `COc1ccc(NC(=O)c2ccccc2SCc2ccncc2)cc1OC` [1-93, N-(3,4-Dimethoxyphenyl)-2-(4-pyridylmethylthio)benzamide], with 72%.

In the case of `COc1cc(CSc2ncccc2C(=O)Nc2cc(C)cc(C)c2)ccn1` [1-300, N-(3,5-Dimethylphenyl)-2-(2-methoxypyridin-4-ylmethylthio)pyridine-3-carboxamide], the inhibition at 20 µg/mL (stock) is 100%. Then `O=C(Nc1ccc(F)c(F)c1)c1sccc1SCc1ccncc1` [1-269, N-(3,4-Difluorophenyl)-3-(4-pyridylmethylthio)thiophene-2-carboxamide], with 53%.

For the molecule `Cc1cc(NC(=O)c2sccc2SCc2ccncc2)ccc1F` [1-252, N-(4-Fluoro-3-methylphenyl)-3-(4-pyridylmethylthio)thiophene-2-carboxamide], the inhibition at 20 µg/mL (stock) stood at 100%. In the case of `CCOC(=O)c1cc(CSc2ncccc2C(=O)Nc2cc(C)cc(C)c2)ccn1` [1-241, N-(3,5-dimethylphenyl)-2-(2-ethoxycarbonylpyridin-4-ylmethylthio)pyridine-3-carboxamide] it was 96%. Then `O=C(Nc1ccc(C(F)(F)F)cc1)c1sccc1SCc1ccncc1` [1-255, 3-(4-Pyridylmethylthio)-N-(4-trifluoromethylphenyl)thiophene-2-carboxamide], with 85%; and `Cc1cc(C)cc(NC(=O)c2sccc2SCc2ccnc(Cl)c2)c1` [1-251, 3-(2-Chloropyridin-4-ylmethylthio)-N-(3,5-dimethylphenyl)thiophene-2-carboxamide], with 77%. Then `O=C(Nc1cc2ccccc2cn1)c1sccc1SCc1ccncc1` [1-274, N-(3-Isoquinolyl)-3-(4-pyridylmethylthio)thiophene-2-carboxamide], with 95%; and `CC(C)c1cccc(NC(=O)c2cccnc2SCc2cc[n+]([O-])cc2)c1` [4-6, N-(3-Isopropylphenyl)-2-(1-oxopyridin-4-ylmethylthio)pyridine-3-carboxamide], with 100%.

(Values after US8518973B2, “Compounds having 4-pyridylalkylthio group as a substituent” (Santen Pharmaceutical Co., Ltd., priority 2003, dated 2013).)
